From PubChem BioAssay AID588635 (Johns Hopkins Ion Channel Center, 2011)

Biological target: Potassium voltage-gated channel subfamily KQT member 2 (Rattus norvegicus) (UniProt O88943)
Assay: PubChem AID 588635
Conditions: KCNQ2-CHO cells, manual whole-cell patch clamp current; at 0.1 µM; hits give high values

Potassium voltage-gated channel subfamily KQT member 2 (Rattus norvegicus), sequence (O88943 whole entry, looked up): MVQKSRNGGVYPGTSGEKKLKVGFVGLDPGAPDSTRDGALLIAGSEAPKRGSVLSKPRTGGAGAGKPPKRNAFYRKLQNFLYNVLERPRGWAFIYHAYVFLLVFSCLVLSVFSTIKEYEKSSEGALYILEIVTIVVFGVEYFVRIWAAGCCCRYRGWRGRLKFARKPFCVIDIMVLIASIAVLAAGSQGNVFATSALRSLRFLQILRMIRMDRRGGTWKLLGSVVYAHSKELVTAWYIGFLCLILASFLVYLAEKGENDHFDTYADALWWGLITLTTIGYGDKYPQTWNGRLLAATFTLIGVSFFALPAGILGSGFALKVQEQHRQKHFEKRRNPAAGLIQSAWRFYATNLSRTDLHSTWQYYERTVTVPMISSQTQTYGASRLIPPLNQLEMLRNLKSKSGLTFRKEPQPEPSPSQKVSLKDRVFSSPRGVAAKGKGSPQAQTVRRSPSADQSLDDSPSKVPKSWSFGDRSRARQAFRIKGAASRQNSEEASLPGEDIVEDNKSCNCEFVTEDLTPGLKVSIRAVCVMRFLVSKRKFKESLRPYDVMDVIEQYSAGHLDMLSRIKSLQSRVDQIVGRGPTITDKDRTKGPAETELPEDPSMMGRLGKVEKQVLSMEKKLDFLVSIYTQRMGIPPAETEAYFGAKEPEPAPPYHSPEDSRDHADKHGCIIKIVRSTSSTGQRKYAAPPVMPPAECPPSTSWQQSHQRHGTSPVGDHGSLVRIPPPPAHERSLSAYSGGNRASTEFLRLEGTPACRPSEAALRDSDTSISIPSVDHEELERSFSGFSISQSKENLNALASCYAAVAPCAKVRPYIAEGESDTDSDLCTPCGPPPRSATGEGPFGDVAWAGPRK

inhibition: 83.4%
SMILES: CC[C@H](C(=O)Nc1ccccc1N1CCCC1)c1ccccc1
